From article PMC6270026, “Antibacterial and Herbicidal Activity of Ring-Substituted 2-Hydroxynaphthalene-1-carboxanilides” (Molecules, 2013) come the findings set out here.

Values after ≈ are worked out from the molar mass of the structure shown.

This assay concerns Mycobacterium avium subsp. paratuberculosis (CIT03). The experiment in a line: In vitro antimycobacterial evaluation (alamarBlue MIC). Type of assay: cell-based. To be noted: 264 h, M. avium paratuberculosis CIT03, 11 days, 37 °C. In a few lines: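 Clinical isolate CIT03 in Middlebrook broth with OADC and mycobactin J, inoculum McFarland No. 1 diluted 1:20, exposed to compound at 1,000 to 8 µg/mL final in duplicate, 37 °C for 11 days. alamarBlue added, read at 570/600 nm after 24 h; MIC is the lowest concentration preventing blue-to-pink change.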
Background: The colour change of resazurin is a common sign of viable cells or microbes.
In general, MIC refers to the lowest concentration that inhibits growth of the organism. `O=C(Nc1cccc(C(F)(F)F)c1)c1c(O)ccc2ccccc12` [Compound 7b, 2-Hydroxy-N-(3-trifluoromethylphenyl)naphthalene-1-carboxamide] had a minimum inhibitory concentration (MIC) of 731 µM (≈ 242 µg/mL).
As for `O=C(Nc1ccccc1C(F)(F)F)c1c(O)ccc2ccccc12` [Compound 7a, 2-Hydroxy-N-(2-trifluoromethylphenyl)naphthalene-1-carboxamide], the figure is 377 µM (≈ 125 µg/mL); as for `O=C(Nc1ccccc1Cl)c1c(O)ccc2ccccc12` [Compound 5a, N-(2-chlorophenyl)-2-hydroxynaphthalene-1-carboxamide], 202 µM (≈ 60.1 µg/mL).
